Data on one compound can be found in patent US20230270676A1 (priority 2020, published 2023).

Holding throughout (format): cell-based, human
The test system of assay [1] is HCT116 cells. Put plainly: Apoptosis of tumor cells by flow cytometry (Annexin V-FITC/PI). The following applies: 48 h after administration, untreated group 16%. Here is the method:
48 h after administration, a supernatant in each group was removed, the cells were washed with 1×PBS 3 times and then digested with EDTA-free trypsin for 2 min, and a 10% FBS-containing cell culture medium was added to stop the digestion. The resulting suspension was collected in a centrifuge tube and centrifuged at 1,000 rpm for 3 min, and resulting cells were washed twice with 1×PBS (4° C.) and resuspended in 400 μL of an Annexin V binding solution. 5 μL of an Annexin V-FITC staining solution was added, and the cells were incubated in the dark for 15 min. 10 μL of a PI staining solution was added, and the cells were incubated in the dark for 5 min. The cells were immediately tested by FC.
For orientation: In flow cytometry, cells or beads pass a laser one at a time.

Assay [2] concerns HCT116 cells. Put plainly: Plate cloning experiment for proliferation of tumor cells (HCT116). Conditions: untreated group 62.0±7.6. Here is the method: (§1) Each of the HCT116 and SW-480 cells in a logarithmic growth phase was prepared into a suspension with a 10% FBS-containing cell culture medium, blown into single cells, counted, inoculated into a six-well plate at a density of 1×10^3 cells/well, and cultivated in a 5% CO2/37° C. incubator with saturated humidity until the cells were adherent to the wall. […] After the administration, the cells were often observed, and when clone spheres visible to the naked eye appeared, the cell cultivation was stopped, the supernatant was discarded, the cells were washed twice with PBS, and 1 mL of 4% paraformaldehyde (PFA) was added to conduct fixation for 20 min. The fixation solution was removed, the cells were washed 3 times with PBS, a 1% gentian violet staining solution was added to conduct staining for 30 min, and then the cells were slowly rinsed with running water to remove the staining solution, dried in an oven at 37° C., and photographed and counted. Colony-forming efficiency (CFE)=(number of cell clones/number of inoculated cells)×100%. […] The colony number was calculated for each group.

Assay [3] concerns SW-480 cells. Put plainly: Plate cloning experiment for proliferation of tumor cells (SW-480). The following applies: untreated group 36.1±7.5. Here is the method: as §1
Assay [4] concerns SW-480 cells. The experiment in a line: Transwell migration experiment (SW-480). Conditions: drug 15 μg/mL, 36 h, untreated group 100.0±11.7. As for the experimental part:
Each of the HCT116 and SW-480 cells in a logarithmic growth stage was taken and prepared into a suspension with a serum-free cell culture medium, counted, and diluted in folds, and a serum-free cell culture medium with the drug of 15 μg/mL was added. 200 μL of the suspension was inoculated into an upper chamber of a Transwell cell at a density of 1×10^5 cells/well, 500 μL of a 10% FBS-containing cell culture medium was added to a lower chamber of the Transwell cell, and the Transwell cell was incubated in a 5% CO2/37° C. incubator with saturated humidity for 36 h. The number of cells passing through the cell was counted, and cells in the upper chamber were gently wiped off with a cotton swab. Cells in the lower chamber were fixed with formaldehyde for 15 min, then stained with a 1% gentian violet staining solution for 30 min, and observed and counted under a microscope.

With `CO[C@H]1C[C@@H]2CC[C@@H](C)[C@@](O)(O2)C(=O)C(=O)N2CCCC[C@H]2C(=O)O[C@H]([C@H](C)C[C@@H]2CC[C@@H](O)[C@H](OC)C2)CC(=O)[C@H](C)/C=C(\C)[C@@H](O)[C@@H](OC)C(=O)[C@H](C)C[C@H](C)/C=C/C=C/C=C/1C` [free RAPA, rapamycin], in the assay on HCT116 cells [1], the Apoptosis rate came out at 21%. The Colony number with HCT116 cells [2] stood at 49.2±5.2; in the assay with SW-480 cells [3], 33.2±3.7. In addition, the “Percentage of cells passing through the cell” value with SW-480 cells [4] stood at 57.4±10.6%.
